# US20020106384A1, “Cosmetic compositions and methods for lightening the skin” (priority 1999, published 2002)
# Test system: B16-F1 mouse melanoma cells
# Assay: B16 F1 melanoma cell based assay for melanogenesis (melanin content in media)
# Details: for Melanin (% Control) Alone: 72 hours, absorbance at 530 nm, lower = more inhibition
# Description: The ability to inhibit melanin production was assessed using B16 cells, a mouse melanoma cell line.
# B16-F1 mouse melanoma cells (obtained from American Type Culture Collection, MD, USA) were maintained in 75 cm^2 culture flasks in RPMI 1640 medium supplemented with L-glutamine (4 mM) and 10% fetal bovine serum (FBS) at 37° C. in a water-saturated, 5% CO2 in air atmosphere. Sub-confluent B16 cells were seeded in 96 well microtiter plates at a density of 5×10^3 cells/well in 200 μl of DMEM containing 10% FBS and 1% penicillin/streptomycin without phenol red at 37° C. under 5% CO2. After 24 hours, the media was replaced with fresh DMEM media containing various compounds at designated concentrations. Cells were incubated for 72 hours at which time melanin was visible in the control well (dark color) where no testing compounds were added.
# The amount of melanin produced for each well was quantified by assessing melanin released into the culture media. The pigment containing media from each well was transferred to a clean 96 well plate and the melanin content was quantified by reading the absorbance at 530 nm. Melanin content in each well was calculated as a percent of the control where cells were maintained in DMEM medium or solvent control.
# Melanin content in the media was expressed as percent of control, therefore the lower the value is, the more inhibition resulted from the tested compounds.
Structure (SMILES),"inhibitory effects on melanin production (B16 cell assay, dose-dependent)",Melanin (% Control) Alone (co-active alone at 2 mM) [% Control],Melanin (% Control) Alone (co-active alone at 5 mM) [% Control],Melanin (% Control) Alone (co-active alone at 10 mM) [% Control],Melanin (% Control) Alone (co-active alone at 15 mM) [% Control]
CC(O)C(=O)O (racemic) [DL-lactic acid],strong inhibitory effects,103.8 ± 20.5,98 ± 19.3,79 ± 16.8,33.5 ± 7.9
N[C@@H](Cc1ccccc1)C(=O)O [L-phenylalanine],–,84.9 ± 16.9,48.3 ± 10,10 ± 2.7,49.7 ± 9.9
NC(=O)c1cccnc1 [Niacinamide],–,94.8 ± 19,83.9 ± 16.7,66.1 ± 13,50.3 ± 10.2
